Where two headings read alike, the source gives them in different places.
What was measured:
ob/ob mice = conditions: daily injections, cited from earlier work
normal mice = conditions: cited from earlier work
patients with HIV/AIDS = conditions: cited from earlier work; for insulin-like growth factor-I (IGF-I) levels: during treatment
[1] = test system: HIV/AIDS wasting patients; conditions: cited from earlier work
patients with HADDS = conditions: cited from earlier work
[2] = test system: AIDS patients that manifest symptoms of HADDS; assay: Combined rhGH (SEROSTIM) plus statin therapy in AIDS patients with HADDS symptoms; assay type: in vivo, human; conditions: after 3 months; combined therapy versus rhGH alone or statin alone
Description: AIDS patients with a history of long-term use (an average of 12 months) of HAART that manifest symptoms of HADDS, including buffalo humps, central adiposity and peripheral muscle wasting associated with fatigue, along with elevated levels of plasma triglycerides and/or cholesterol are selected for the study. Therapy with rhGH (SEROSTIM®) is initiated in all patients at a dose of e.g., 4 mg/day subcutaneously (other concentrations, e.g., 6 mg/day could be used). At the same time, the patients are treated with a statin in a dosage amount of 40 mg/day, which is administered orally. This dosage amount is based on the average dose of statin drugs commonly administered for antilipemic purposes. The patients are maintained on this […] for three months and monitored every two weeks for improvements of fat maldistribution. In parallel therapies, patients are treated with just rhGH and just statin.

[3] = test system: patients with overt AIDS wasting; conditions: cited from earlier work
[4] = at 12 weeks, not deemed clinically significant (Engleson et al. 1999)
[5] = rhGH 4 to 6 mg/day, by four months (Torres 1999)

leptin: protein hormone of approximately 16 kDa encoded by the obese (ob) gene; recombinant mouse or human leptin
food intake (ob/ob mice; within a few days): dramatic reduction | reduction in body weight (ob/ob mice; within a month): ~50% | adipose tissue (normal mice; mouse, in vivo): profound depletion of adipose tissue | body weight (normal mice; mouse, in vivo): lose weight | lean mass (normal mice; mouse, in vivo): increases in lean mass | lipolysis in adipose tissue (normal mice; no apparent effect on lean tissue, species not stated): promotes lipolysis

hGH: Human growth hormone, single polypeptide chain of 191 amino acids having two disulfide bonds
weight loss preceding the study (patients with HIV/AIDS; 5.0 mg qod, four patients who completed the study): reversed | safety of supraphysiologic doses ([1]; in vivo, sc): safely administered

rhGH: Recombinant human growth hormone, rhGH, produced by Serono S. A. as SEROSTIM®
visceral adiposity (patients with HADDS; Engleson et al. 1999, Mauss et al. 1998): reduce | solitary lipomas (patients with HADDS; Milano et al. 1999): reduce | buffalo hump (patients with HADDS; Torres 1998, 1999): reduce | abdominal girth (patients with HADDS; Wanke et al. 1999): reduce | HDL cholesterol and glucose (patients with HADDS; [4]): increased | total cholesterol and fasting triglycerides (patients with HADDS; [4]): dropped significantly | collective side effects of rhGH administration (patients with HADDS; human, in vivo): swelling of the fingers or paresthesia due to tissue turgor, a few transient elevations of fasting glucose and triglycerides | lean body mass and body cell mass (patients with HADDS; quantified by bioelectrical impedance analysis): increased | change in peripheral lipodystrophy (patients with HADDS; [5]): no change | increase in fat free mass (patients with HADDS; [5]): 5 to 10% | size and firmness of buffalo humps (patients with HADDS; [5]): significantly reduces | truncal adiposity (patients with HADDS; [5]): reduces | changes in body weight, total body fat, or blood lipids (patients with HADDS; rhGH 4 to 6 mg/day, during the treatment period (Torres 1999)): no significant or consistent changes | abnormally accumulated fat, compared to baseline (patients with HADDS; s.c., 3 to 6 mg per day for 12 to 24 weeks): significantly reduces | insulin-like growth factor-I (IGF-I) levels (patients with HIV/AIDS; 2.5 mg qod): no significant change | insulin-like growth factor-I (IGF-I) levels (patients with HIV/AIDS; 5.0 mg qod): increased significantly | improvement in fat maldistribution [2]: do not experience as dramatic an improvement | lean body mass and weight ([3]; 0.1 mg/kg/day, 12 weeks, compared to placebo): significant increases | tolerability of relatively high doses ([3]; 6 mg/day s.c., many patients with overt AIDS wasting): without developing adverse effects that require dose reduction or cessation of therapy | effectiveness of a three-month course of therapy ([1]; over 10,000 HIV/AIDS wasting patients since 1996): effective in the majority of patients

Reference: US20070161551A1, “Methods and compositions for the treatment of lipodystrophy” (priority 2004, published 2007)
